Measured values: the supplement of paper PMC10307832

Experiments:
Test in all cases: relative viability (nuclei count vs DMSO), 5 days (fraction); higher = more cells survive
[1] = compound: CC1=CC(=NN1)NC2=CC(=NC(=N2)/C=C/C3=CC=CC=C3)N4CCN(CC4)C + CS(=O)(=O)CCNCc1ccc(-c2ccc3ncnc(Nc4ccc(OCc5cccc(F)c5)c(Cl)c4)c3c2)o1 [Lapatinib] (partner 2 µM)
Method in brief: (§1)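 The day after seeding in 1536-well plates, lung cancer cell lines were treated by pin tool with a single drug, or with a fixed anchor-drug dose together with five library-drug doses (not always all listed) in √10 steps. After 5 days, a combined fix-and-stain solution (final 0.05% Triton X-100, 1% formaldehyde, 1 ug/ml Hoechst) was added. Nuclei counted on 4× images gave relative viability as treated counts over vehicle counts, reported as the median of duplicate plates.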

[2] = compound: CC1=CC(=NN1)NC2=CC(=NC(=N2)/C=C/C3=CC=CC=C3)N4CCN(CC4)C + C[C@@H](Oc1cc(-c2cnn(C3CCNCC3)c2)cnc1N)c1c(Cl)ccc(F)c1Cl [Crizotinib] (partner 1 µM)
Method in brief: as §1

[3] = compound: CC(C)C[C@H](NC(=O)[C@H](Cc1ccccc1)NC(=O)c1cnccn1)B(O)O [Bortezomib] + C[C@@H](Oc1cc(-c2cnn(C3CCNCC3)c2)cnc1N)c1c(Cl)ccc(F)c1Cl [Crizotinib] (partner 1 µM)
Method in brief: as §1

[4] = compound: CC1=CC(=NN1)NC2=CC(=NC(=N2)/C=C/C3=CC=CC=C3)N4CCN(CC4)C + NC(=O)Nc1cc(-c2cccc(F)c2)sc1C(=O)N[C@H]1CCCNC1 [AZD7762] (partner 0.2 µM)
Method in brief: as §1

| Cell Line | relative viability ([1]; first compound 0.08 µM) | relative viability ([1]; first compound 0.253 µM) | relative viability ([1]; first compound 0.8 µM) | relative viability ([1]; first compound 2.53 µM) | relative viability ([1]; first compound 8 µM) | relative viability ([2]; first compound 0.08 µM) | relative viability ([2]; first compound 0.253 µM) | relative viability ([2]; first compound 0.8 µM) | relative viability ([2]; first compound 2.53 µM) | relative viability ([2]; first compound 8 µM) | relative viability ([3]; first compound 0.0002 µM) | relative viability ([3]; first compound 0.000632 µM) | relative viability ([3]; first compound 0.002 µM) | relative viability ([3]; first compound 0.006325 µM) | relative viability ([3]; first compound 0.02 µM) | relative viability ([4]; first compound 0.08 µM) | relative viability ([4]; first compound 0.253 µM) | relative viability ([4]; first compound 0.8 µM) | relative viability ([4]; first compound 2.53 µM) | relative viability ([4]; first compound 8 µM) |
| --- | --- | --- | --- | --- | --- | --- | --- | --- | --- | --- | --- | --- | --- | --- | --- | --- | --- | --- | --- | --- |
| NCI-H2347 | 0.908 | 0.95 | 1.04 | 0.938 | 0.99 | 0.855 | 0.784 | 0.545 | 0.573 | 0.262 | 0.657 | 0.582 | 0.348 | 0.291 | 0.298 | 0.544 | 0.788 | 0.911 | 0.484 | 0.32 |
| NCI-H2405 | 1.09 | 0.87 | 1.22 | 0.696 | 0.133 | 0.868 | 0.818 | 0.803 | 0.694 | 0.202 | 0.88 | 0.83 | 0.834 | 0.24 | 0.15 | 0.742 | 0.766 | 0.768 | 0.357 | 0.118 |
| NCI-H3122 | 0.971 | 0.859 | 1.03 | 0.925 | 0.897 | 0.285 | 0.318 | 0.253 | 0.268 | 0.168 | 0.252 | 0.264 | 0.287 | 0.275 | 0.182 | 0.963 | 0.943 | 1 | 0.944 | 0.408 |
| PC-3 [JPC-3] | 0.445 | 0.46 | 0.466 | 0.408 | 0.368 | 0.931 | 1 | 0.917 | 0.878 | 0.74 | 1.01 | 0.98 | 0.726 | 0.934 | 0.133 | 0.709 | 0.805 | 0.764 | 0.554 | 0.303 |
| PC-14 | 0.334 | 0.374 | 0.278 | 0.248 | 0.0886 | 0.831 | 1 | 0.872 | 0.494 | 0.0811 | 0.935 | 0.935 | 0.947 | 0.359 | 0.0821 | 0.346 | 0.446 | 0.354 | 0.28 | 0.0653 |
| RERF-LC-KJ | 0.878 | 0.875 | 0.839 | 0.716 | 0.292 | 0.832 | 0.82 | 0.747 | 0.617 | 0.234 | 0.846 | 0.85 | 0.84 | 0.271 | 0.178 | 0.854 | 1.05 | 0.915 | 0.651 | 0.232 |
